Measured values taken from patent US20060286132A1, “Use of stellate ganglion block for the treatment of sexual dysfunction” (priority 2005, published 2006).

Assays:
[1] = tested on: severe menopausal hot flashes; assay: Self-reported hot flashes pre and post stellate ganglion block in women with severe menopausal hot flashes; assay type: in vivo
Description: A stellate ganglion block is illustratively performed by placing the patient in the supine position (on the back) with the neck slightly extended and the jaw open. While the patient is usually conscious for the procedure, a medication such as Versed (midazolam hydrochloride), fentanyl, or other sedative is often administered, to relax the patient. A local anesthetic is also usually administered, to numb the skin and tissue down to the ganglion nerve. A needle is inserted toward the stellate ganglion. […] The needle 20 is shown inserted adjacent to the stellate ganglion 10. In the illustrative block, a contrast solution is injected through needle 20 via syringe 22, and the needle position is confirmed by fluoroscopy or other means, as are known in the art.
The anesthetic 30 is then delivered next to stellate ganglion 10 by injection via needle 20. Illustratively, 5 cc 0.375% Marcaine® (bupivacaine) may be used. However, it is understood that other anesthetics, illustratively lidocaine, morphine or other opioids, clonidine, botox, or tetracine, or a combination of anesthetic and epinephrine, may be used and that the dosage range may vary depending on the particular anesthetic and other factors, as are known in the art. Needle 20 is removed, and the patient is optionally placed in the sitting position to facilitate the spread of anesthesia inferiorly to the stellate ganglion. Illustratively, longer acting anesthetics such as bupivacaine are used, but other anesthetics may be used, as are known in the art. The stellate ganglion block may also be performed by radiofrequency lesioning, as is known in the art.
Six women suffering from severe menopausal hot flashes each received a standard stellate ganglion block (0.375% Marcaine, 5 cc), as described above. Hot flashes were assessed by self-reporting pre and post stellate ganglion block.

[2] = tested on: sexual dysfunction, including anorgasmia; assay: Sexual function after stellate ganglion block in a person with sexual dysfunction including anorgasmia; assay type: in vivo

CCCCN1CCCCC1C(=O)Nc1c(C)cccc1C (stereo not drawn) [Marcaine, bupivacaine]
success of initial stellate ganglion block, as evidenced by a positive Homer's syndrome and anhydrosis ([1]; 0.375% Marcaine, 5 cc, six women, initial block): successful in all six subjects
duration of complete alleviation of hot flashes ([1]; initial stellate ganglion block, 0.375% Marcaine, 5 cc, six women): 2-5 weeks
additional asymptomatic period of relief from hot flashes ([1]; second stellate ganglion block, after mild hot flashes returned): 4-18 weeks
sexual function with additional stellate ganglion blocks ([2]; additional blocks over the course of 3 years): maintain normal sexual function
sexual function following stellate ganglion block ([2]; person, block in accordance with Example 1): return of normal sexual function
effect on sexual dysfunction, block administered through C7 ([2]; variation in treatment: administration of the stellate ganglion block through C7): ineffective
